How the values were obtained:
[1] = molecular target: T1, β5 subunit of the human constitutive proteasome (CPS) (Homo sapiens, UniProt P28074); test: β5 inhibition assay, human constitutive proteasome (Suc-LLVY-AMC); assay type: biochemical; settings: IC50 class, Suc-LLVY-AMC substrate
T1 construct: purchased Boston Biochem E-360
Protocol: The enzymatic activity of the β5 subunit of the human constitutive proteasome (CPS) is analyzed. In another assay, which differs from the assay of the human constitutive proteasome only in using the human immunoproteasome (IPS) the enzymatic activity of the β5 subunit of the human immunoproteasome (IPS) is analyzed. […] Inhibition is indicated as IC50 [nM] (“-”=not measured).

[2] = test system: A549 (human lung carcinoma cell line); test: Glo assay of A549 cells (Table 3; ProteasomeGlo plating scheme); assay type: cell-based; settings: Homo sapiens; A549 cells; read-out: PGLo A549
Outline: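 Luminescent read-out of cellular chymotrypsin-like proteasome activity: cells exposed to compound 105 min at 37° C., 5% CO2, then given Suc-LLVY-Glo reagent, shaken 2-5 min and kept dark 10-15 min before reading. Values are IC50 [nM].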

[3] = test system: HT-29 cells; test: CellTiter-Glo luminescent cell viability assay with HT-29 cells (72h incubation); assay type: cell-based, human; settings: Homo sapiens, HT-29, HT29 cells, read-out: CTG HT29
Outline: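 Viability read as CellTiter-Glo luminescence after 72 h compound exposure, with 10 μM staurosporine and DMSO as control wells. Seeding 400 cells per well, compound added 24 h post-plating; IC50 from curve fitting.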

Row | SMILES | IC50 [1] | IC50 [2] | IC50 [3]
1 | Cc1ccc2cc1CNC(=O)C(c1cnn(C)c1)NC(=O)[C@@H](NC(=O)CN1CCCC1)CC(=O)N1CCCC(CCO2)C1 (stereo partly drawn) [Compound 358, N-((12S)-5^4-methyl-9-(1-methyl-1H-pyrazol-4-yl)-8,11,14-trioxo-4-oxa-7,10-diaza-1(3,1)-piperidina-5(1,3)-benzenacyclotetradecaphane-12-yl)-2-(pyrrolidin-1-yl)acetamide] | 100 to 500 nM | < 100 nM | 100 to 500 nM
2 | Cc1ccc2cc1CNC(=O)C(CCc1cnc3cccnc3c1)NC(=O)[C@@H](NC(=O)OCc1ccccc1)CC(=O)N1CCCC(CCO2)C1 (stereo partly drawn) [Compound 511, benzyl ((12S)-9-(2-(1,5-naphthyridin-3-yl)ethyl)-5^4-methyl-8,11,14-trioxo-4-oxa-7,10-diaza-1(3,1)-piperidina-5(1,3)-benzenacyclotetradecaphane-12-yl)carbamate] | < 100 nM | < 100 nM | < 100 nM
3 | Cc1ccc2cc1CNC(=O)[C@H](CCc1ccccc1)NC(=O)[C@@H](NC(=O)Cc1nnc(N)[nH]1)CC(=O)N1CCCC(CCO2)C1 (stereo partly drawn) [Compound 340, 2-(5-amino-1H-1,2,4-triazol-3-yl)-N-((9S,12S)-5^4-methyl-8,11,14-trioxo-9-phenethyl-4-oxa-7,10-diaza-1(3,1)-piperidina-5(1,3)-benzenacyclotetradecaphane-12-yl)acetamide] | < 100 nM | < 100 nM | 100 to 500 nM
4 | CC(=O)N[C@H]1CCCC(=O)N(C)CCCCOc2ccc(C)c(c2)CNC(=O)[C@H](CCc2ccccc2)NC1=O [Compound 295, N-(1^4,7-dimethyl-8,13,16-trioxo-15-phenethyl-2-oxa-7,14,17-triaza-1(1,3)-benzenacyclooctadecaphane-12-yl)acetamide] | < 100 nM | 100 to 500 nM | < 100 nM
5 | Cc1ccc2cc1CNC(=O)[C@H](CCc1ccccc1)NC(=O)[C@@H](NC(=O)OCc1ccccc1)CCC(=O)N1CCC(CO2)C1 (stereo partly drawn) [Compound 349, benzyl ((8S,11S)-4^4-methyl-7,10,14-trioxo-8-phenethyl-3-oxa-6,9-diaza-1(3,1)-pyrrolidina-4(1,3)-benzenacyclotetradecaphane-11-yl)carbamate] | < 100 nM | 100 to 500 nM | 100 to 500 nM
6 | COC(=O)N(CC1NC(=O)[C@@H](NC(=O)OCc2ccccc2)CC(=O)N2CCCC(CCOc3ccc(C)c(c3)CNC1=O)C2)c1ccccc1 (stereo partly drawn) [Compound 513, methyl (((12R)-12-(((benzyloxy)carbonyl)amino)-5^4-methyl-8,11,14-trioxo-4-oxa-7,10-diaza-1(3,1)-piperidina-5(1,3)-benzenacyclotetradecaphane-9-yl)methyl)(phenyl)carbamate] | < 100 nM | < 100 nM | < 100 nM
7 | Cc1ccc2cc1CNC(=O)[C@H](CCc1ccccc1)NC(=O)[C@@H](NC(=O)Cc1ccccc1)CC(=O)N1CCCC(CCO2)C1 (stereo partly drawn) [Compound 29, N-((9S,12S)-5^4-methyl-8,11,14-trioxo-9-phenethyl-4-oxa-7,10-diaza-1(3,1)-piperidina-5(1,3)-benzenacyclotetradecaphane-12-yl)-2-phenylacetamide] | < 100 nM | < 100 nM | < 100 nM
8 | CC(=O)N[C@H]1CC(=O)N2CCCC(CCOc3ccc(C)c(c3)CNC(=O)C(c3ccc4ncccc4c3)NC1=O)C2 (stereo partly drawn) [Compound 554, N-((12S)-5^4-methyl-8,11,14-trioxo-9-(quinolin-6-yl)-4-oxa-7,10-diaza-1(3,1)-piperidina-5(1,3)-benzenacyclotetradecaphane-12-yl)acetamide] | < 100 nM | 100 to 500 nM | < 100 nM
9 | CCOC(C(=O)N[C@H]1CC(=O)N2CCCC(CCOc3ccc(C)c(c3)CNC(=O)[C@H](CCc3ccccc3)NC1=O)C2)c1ccc(N)cc1 (stereo partly drawn) [Compound 345, 2-(4-aminophenyl)-2-ethoxy-N-((9S,12S)-5^4-methyl-8,11,14-trioxo-9-phenethyl-4-oxa-7,10-diaza-1(3,1)-piperidina-5(1,3)-benzenacyclotetradecaphane-12-yl)acetamide] | < 100 nM | 100 to 500 nM | < 100 nM
10 | CC(=O)N[C@H]1CC(=O)N2CCCC(CCOc3ccc(C)c(c3)CNC(=O)C(c3cn[nH]c3)NC1=O)C2 (stereo partly drawn) [Compound 562, N-((12S)-5^4-methyl-8,11,14-trioxo-9-(1H-pyrazol-4-yl)-4-oxa-7,10-diaza-1(3,1)-piperidina-5(1,3)-benzenacyclotetradecaphane-12-yl)acetamide] | < 100 nM | 100 to 500 nM | 100 to 500 nM
11 | Cc1ccc2cc1CNC(=O)[C@H](CCc1ccccc1)NC(=O)[C@@H](NC(=O)Cc1cnc(N)s1)CC(=O)N1CCCC(CCO2)C1 (stereo partly drawn) [Compound 311, 2-(2-aminothiazol-5-yl)-N-((9S,12S)-5^4-methyl-8,11,14-trioxo-9-phenethyl-4-oxa-7,10-diaza-1(3,1)-piperidina-5(1,3)-benzenacyclotetradecaphane-12-yl)acetamide] | < 100 nM | < 100 nM | < 100 nM
12 | CC(=O)N[C@H]1CC(=O)N2CCCC(CCOc3ccc(C)c(c3)CNC(=O)C(CCC3CCN(C(C)=O)CC3)NC1=O)C2 (stereo partly drawn) [Compound 338, N-((12S)-9-(2-(1-acetylpiperidin-4-yl)ethyl)-5^4-methyl-8,11,14-trioxo-4-oxa-7,10-diaza-1(3,1)-piperidina-5(1,3)-benzenacyclotetradecaphane-12-yl)acetamide] | < 100 nM | 100 to 500 nM | < 100 nM
13 | Cc1ccc2cc1CNC(=O)[C@@H](CCc1ccccc1)NC(=O)[C@H](NC(=O)C(C)(C)CS)CC(=O)N1CCCC(CCO2)C1 (stereo partly drawn) [Compound 348, 3-mercapto-2,2-dimethyl-N-((9S,12S)-5^4-methyl-8,11,14-trioxo-9-phenethyl-4-oxa-7,10-diaza-1(3,1)-piperidina-5(1,3)-benzenacyclotetradecaphane-12-yl)propanamide] | < 100 nM | < 100 nM | < 100 nM
14 | Cc1ccc2cc1CNC(=O)[C@H](CCc1ccccc1)NC(=O)[C@@H](NC1COC1)CC(=O)N1CCCC(CCO2)C1 (stereo partly drawn) [Compound 35, (9S,12S)-5^4-methyl-12-(oxetan-3-ylamino)-9-phenethyl-4-oxa-7,10-diaza-1(3,1)-piperidina-5(1,3)-benzenacyclotetradecaphane-8,11,14-trione] | < 100 nM | 100 to 500 nM | 100 to 500 nM
15 | CC(=O)N[C@H]1CC(=O)N2CCCC(CCOc3ccc(C)c(c3)CNC(=O)C(c3cnn(CCOCCOCCOCCN)c3)NC1=O)C2 (stereo partly drawn) [Compound 566, N-((12S)-9-(1-(2-(2-(2-(2-aminoethoxy)ethoxy)ethoxy)ethyl)-1H-pyrazol-4-yl)-5^4-methyl-8,11,14-trioxo-4-oxa-7,10-diaza-1(3,1)-piperidina-5(1,3)-benzenacyclotetradecaphane-12-yl)acetamide] | < 100 nM | < 100 nM | 100 to 500 nM
16 | Cc1ccc2cc1CNC(=O)[C@H](CCc1ccccc1)NC(=O)[C@@H](NC(=O)C(C)c1ccc(N)cc1)CC(=O)N1CCCC(CCO2)C1 (stereo partly drawn) [Compound 309, 2-(4-aminophenyl)-N-((9S,12S)-5^4-methyl-8,11,14-trioxo-9-phenethyl-4-oxa-7,10-diaza-1(3,1)-piperidina-5(1,3)-benzenacyclotetradecaphane-12-yl)propanamide] | < 100 nM | < 100 nM | < 100 nM

Source: patent US20240415819A1, “MACROCYCLIC COMPOUNDS AS PROTEASOME SUBUNIT BETA TYPE-5 INHIBITORS” (Lead Discovery Center GmbH, priority 2021, published 2024)
